In patent publication US11230526B1, “Cylcoalkenyl derivatives useful as agonists of the GPR120 and/or GPR40 receptors” (Janssen Pharmaceutica NV, priority 2018, dated 2022):

How the values were obtained:
Assay type in all cases: cell-based
Human GPR120 short form [1] = biological target: T1, Human GPR120 short form (Homo sapiens, UniProt Q5NUL3); experiment: Human GPR120 calcium flux assay, Procedure Calcium B (4200 cells/well)
T1 construct: expressed in transfected cells
T1 sequence (Q5NUL3 1-361): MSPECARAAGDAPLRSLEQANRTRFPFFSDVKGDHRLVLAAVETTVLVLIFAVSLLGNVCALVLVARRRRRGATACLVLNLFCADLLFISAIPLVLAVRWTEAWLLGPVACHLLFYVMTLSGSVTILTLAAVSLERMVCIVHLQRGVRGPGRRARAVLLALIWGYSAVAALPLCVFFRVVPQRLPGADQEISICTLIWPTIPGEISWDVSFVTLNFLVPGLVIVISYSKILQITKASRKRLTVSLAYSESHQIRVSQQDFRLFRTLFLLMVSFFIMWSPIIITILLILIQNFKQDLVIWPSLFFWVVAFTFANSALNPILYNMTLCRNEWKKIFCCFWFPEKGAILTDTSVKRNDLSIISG
Method in brief: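 Agonist EC50 came from a four-parameter fit of RFU (Fmax−Fmin) read over 300 s on FLIPR. Cells were HEK293 stably transfected with human GPR120 (NM_001195755.1) at 4200 per well, serum-starved 1 h and loaded with Fluo-4 NW dye with probenecid before ligand addition.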

Human GPR120 short form [2] = biological target: T1, Human GPR120 short form; experiment: Human GPR120 calcium flux assay, Procedure Calcium A (2500 cells/well)
Method in brief: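 HEK293 cells stably expressing human GPR120 short isoform (NM_001195755.1), 2500 cells/well, serum-starved 1 h at 37 °C and loaded with Fluo-4 NW plus probenecid. FLIPR fluorescence read for 300 s after compound addition; response = Fmax−Fmin. EC50 from four-parameter concentration–response fit.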

[3] = biological target: T2, short form of the GPR120 receptor (Homo sapiens, UniProt Q5NUL3); experiment: Human GPR120 DiscoveRx PathHunter Beta-Arrestin assay, Procedure β-arrestin B
T2 construct: host or cells: PathHunter CHO-K1 GPR120S β-Arrestin Cell Line
T2 sequence (P32121 whole entry partner, one chain of several): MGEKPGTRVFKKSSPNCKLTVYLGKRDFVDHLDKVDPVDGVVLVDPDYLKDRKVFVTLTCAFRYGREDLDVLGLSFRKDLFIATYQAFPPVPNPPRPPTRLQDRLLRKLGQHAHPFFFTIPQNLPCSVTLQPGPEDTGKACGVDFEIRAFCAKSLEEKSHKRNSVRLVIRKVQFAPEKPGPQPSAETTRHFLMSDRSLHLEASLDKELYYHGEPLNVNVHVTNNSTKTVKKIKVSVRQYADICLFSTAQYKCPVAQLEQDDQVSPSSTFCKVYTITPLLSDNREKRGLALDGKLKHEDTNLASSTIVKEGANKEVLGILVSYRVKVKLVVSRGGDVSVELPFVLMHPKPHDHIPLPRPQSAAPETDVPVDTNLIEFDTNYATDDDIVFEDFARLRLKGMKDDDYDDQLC
Description: Human GPR120 DiscoveRx PathHunter® Beta-Arrestin Assay Assay Principle:
The binding of an agonist (medium/long chain fatty acids or small molecule agonists) to the G-protein-coupled receptor GPR120 activates phospholipase C, leading to release of intracellular Ca^+2 through the generation of inositol 1,4,5-trisphosphate (InsP3 or IP3). GPR120 activation can also trigger intracellular signaling via recruitment of Beta-Arrestin. In the present method, agonist-induced activation of the human GPR120 receptor is monitored through the use of PathHunter® CHO-K1 GPR120 Beta-Arrestin Cell Line engineered by DiscoveRx, as detailed below. The cell lines are designed to co-express both the ProLink/Enzyme Donor (PK)-tagged GPCR and the Enzyme […] (EA)-tagged Beta-Arrestin fusion proteins. Upon GPR120 receptor stimulation/activation, the EA-tagged Beta-Arrestin portion is translocated to the tagged receptor, where the two enzyme fragments are brought within close proximity. Under these conditions, these fragments can interact and form an active Beta-gal enzyme complex through Enzyme Fragment Complementation (EFC). This active Beta-gal complex can enzymatically hydrolyse the substrate to produce a detectable light signal; therefore, activation as a function of agonist concentration can be expressed as an EC50 value to determine relative compound activities. This in vitro assay therefore serves to assess compound agonist activity of the GPR120.
In Procedure β-arrestin B the cells used were PathHunter® CHO-K1 GPR120S β-Arrestin Cell Line, expressing the short form of the GPR120 receptor (Accession #[…]), with 5000 cells/well.
The selected CHO-K1 GPR120 β-Arrestin cells were cultured in Ham's F12 media supplemented with 10% fetal bovine serum (FBS), 1% Glutamine, 1×p/s, 800 μg/mL G418 and 300 μg/mL Hygromycin B (for selection). Cell stocks were maintained and grown in a sub-confluent state using standard cell culture procedures. The day before the experiment, the cells were harvested with non-enzymatic cell dissociation buffer and re-suspended in complete growth media at the desired concentration. A Corning 384-plate was then seeded with the proper number of cells in a volume of 25 μL, per well. The seeded plates were incubated overnight at 37° C.
On the day of the experiment, the Assay Buffer containing (a) HBSS with Ca^++ and Mg^++, (b) 20 mM HEPES, and (c) 0.1% BSA stabilizer (pH 7.4) was prepared. The growth medium was gently removed from the cell plates and 20 μL of Assay Buffer added to each well. The plate was then incubated at 37° C. for 60 min. Test compounds were serially diluted in Assay Buffer to desired concentrations (more particularly to one or more of the following μM concentrations: 25, 12.5, 6.25, 3.12, 1.56, 0.78, 0.39, 0.19, 0.10, 0.05, 0.02, 0.01). Five μL of compound dilution was then added to each well and the plate incubated at 37° C. for 90 min. The detection reagents were prepared according to the manufacture's instruction. Twelve μL of the detection reagents were added to each well and the plate incubated at room temperature for 60 min.
The plates were read on an EnVision instrument, using Protocol name: Luminescence, Plate type: 384 Costar, Measurement height: 3 mm, Measurement time: 1 s, Aperture: 384 Plate aperture. The % Activity relative to the positive control was calculated using the following equation:
The % Activity values were plotted versus the concentration of test compound and fitted to a sigmoidal dose-response curve with a Hill slope=1 (fixed value) using nonlinear regression with GraphPad Prism 5.0 to calculate the EC50 values. The Fitting Equation was: Y=Bottom+(Top-Bottom)/(1+10^((Log EC50−X)*HillSlope)), where X is the log of the concentration and Y is the response.

[4] = biological target: T3, long form of human GPR120 (Homo sapiens, UniProt Q5NUL3); experiment: Human GPR120 DiscoveRx PathHunter Beta-Arrestin assay, Procedure β-arrestin A
T3 construct: host or cells: PathHunter CHO-K1 GPR120 β-Arrestin Cell Line
T3 sequence (Q5NUL3 1-377 isoform Q5NUL3-1): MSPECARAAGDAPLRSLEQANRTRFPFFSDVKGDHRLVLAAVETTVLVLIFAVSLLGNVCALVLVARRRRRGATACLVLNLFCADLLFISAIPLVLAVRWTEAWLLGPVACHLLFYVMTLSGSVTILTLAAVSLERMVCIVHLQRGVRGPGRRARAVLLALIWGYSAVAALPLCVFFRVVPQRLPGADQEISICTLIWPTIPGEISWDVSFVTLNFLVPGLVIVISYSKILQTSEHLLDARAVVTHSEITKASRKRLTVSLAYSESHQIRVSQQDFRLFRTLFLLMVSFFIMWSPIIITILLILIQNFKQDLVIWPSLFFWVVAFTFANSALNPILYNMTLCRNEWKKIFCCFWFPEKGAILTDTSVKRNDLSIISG
T3 sequence (P32121 whole entry partner): as the sequence (P32121 whole entry partner, one chain of several) above
Method in brief: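 PathHunter CHO-K1 cells expressing long-form human GPR120 (3000/well) were seeded overnight. They were then preincubated 60 min in HBSS with 20 mM HEPES and 0.1% BSA, pH 7.4, and exposed to compound for 90 min at 37 °C. β-Arrestin recruitment was read as β-gal complementation luminescence. EC50 came from % activity versus positive control, Hill slope fixed at 1.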

human GPR40 = biological target: T4, human GPR40 (Homo sapiens, UniProt O14842); experiment: GPR40 calcium flux assay, human GPR40; details: HEK293 cells stably expressing GPR40; table does not say human or rat
T4 construct: expressed in transfected cells
T4 sequence (O14842 whole entry): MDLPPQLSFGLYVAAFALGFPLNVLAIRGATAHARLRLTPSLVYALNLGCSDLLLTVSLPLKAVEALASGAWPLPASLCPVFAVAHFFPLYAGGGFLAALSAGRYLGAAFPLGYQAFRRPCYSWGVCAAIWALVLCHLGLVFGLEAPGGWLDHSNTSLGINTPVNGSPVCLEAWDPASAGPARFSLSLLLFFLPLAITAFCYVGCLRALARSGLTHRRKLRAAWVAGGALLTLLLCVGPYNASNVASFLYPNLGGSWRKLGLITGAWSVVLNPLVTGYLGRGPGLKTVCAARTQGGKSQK
Method in brief: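 Cells preincubated 1 h at 37° C. in HBSS, 20 mM HEPES, 0.1% BSA, then Fluo 8 calcium dye 30 min at 37° C. and 15 min at room temperature.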

| Structure (SMILES) | EC50 (Human GPR120 short form [1]) [nM] | EC50 (Human GPR120 short form [2]) [nM] | EC50 [3] [nM] | EC50 [4] [nM] | EC50 (human GPR40) [µM] |
| --- | --- | --- | --- | --- | --- |
| CSc1ccc(C2=C(COc3ccc(CCC(=O)O)c(C)c3C)CCC2)cc1 [Compound 50, 3-[2,3-dimethyl-4-[[2-(4-methylsulfanylphenyl)cyclopenten-1-yl]methoxy]phenyl]Propanoic Acid] | 183 | 409 | 709 |  |  |
| Cc1c(CCC(=O)O)ccc(OCC2=C(c3ccc(C(C)C)cc3)CCC2)c1C [Compound 55, 3-[4-[[2-(4-isopropylphenyl)cyclopenten-1-yl]methoxy]-2,3-dimethyl-phenyl]Propanoic Acid] | 282 | 793 | 246 |  |  |
| Cc1c(CCC(=O)O)ccc(OCC2=C(c3ccc(Br)cc3)CCC2)c1C [Compound 56, 3-[4-[[2-(4-bromophenyl)cyclopenten-1-yl]methoxy]-2,3-dimethyl-phenyl]Propanoic Acid] | 37 | 324 | 85 |  |  |
| Cc1c(CCC(=O)O)ccc(OCC2=C(c3ccc(I)cc3)CCC2)c1C [Compound 57, 3-[4-[[2-(4-iodophenyl)cyclopenten-1-yl]methoxy]-2,3-dimethyl-phenyl]Propanoic Acid] | 50 | 527 | 258 |  |  |
| Cc1c(CCC(=O)O)ccc(OCC2=C(c3ccc(C(F)(F)F)cc3)CCC2)c1C [Compound 75, 3-[2,3-dimethyl-4-[[2-[4-(trifluoromethyl)phenyl]cyclopenten-1-yl]methoxy]phenyl]Propanoic Acid] | 195 | 591 | 171 |  |  |
| [2H]C(C(=O)O)C([2H])c1ccc(OCC2=C(c3ccc(Cl)cc3)CCC2)c(C)c1 (centres unmarked) [Compound 126-D, 3-(4-((2-(4-chlorophenyl)cyclopent-1-en-1-yl)methoxy)-3-methylphenyl)Propanoic-2,3-d2 Acid] | 10 |  | 45 | 35 | > 5 |
| O=C(O)CCc1ccc(OCC2=C(c3ccc(Cl)cc3)CCC2)c(I)c1 [Compound 130, 3-[3-iodo-4-[[2-(4-chlorophenyl)cyclopenten-1-yl]methoxy]phenyl]Propanoic Acid] | 34 |  | 41 | 87 | > 5 |
| Cc1c(CCC(=O)O)ccc(OCC2=C(c3ccc(C(F)(F)F)cc3)CCCC2)c1C [Compound 460, 3-[2,3-dimethyl-4-[[2-[4-(trifluoromethyl)phenyl]cyclohexen-1-yl]methoxy]phenyl]Propanoic Acid] | 385 | 1010 | 625 |  |  |
| Cc1ccc(C2=C(COc3ccc(CCC(=O)O)c(C)c3C)CCCC2)cc1 [Compound 462, 3-[2,3-dimethyl-4-[[2-(p-tolyl)cyclohexen-1-yl]methoxy]phenyl]Propanoic Acid] | 66 | 462 | 478 |  |  |
| Cc1c(CCC(=O)O)ccc(OCC2=C(c3ccc(F)cc3)CCCC2)c1C [Compound 480, 3-[4-[[2-(4-fluorophenyl)cyclohexen-1-yl]methoxy]-2,3-dimethyl-phenyl]Propanoic Acid] | 79 | 234 | 385 |  |  |
| Cc1c(CCC(=O)O)ccc(OCC2=C(c3ccc(Br)cc3)CCCC2)c1C [Compound 481, 3-[4-[[2-(4-bromophenyl)cyclohexen-1-yl]methoxy]-2,3-dimethyl-phenyl]Propanoic Acid] | 134 | 250 | 475 |  |  |
| Cc1c(CCC(=O)O)ccc(OCC2=C(c3cccs3)CCCC2)c1C [Compound 482, 3-[2,3-dimethyl-4-[[2-(2-thienyl)cyclohexen-1-yl]methoxy]phenyl]Propanoic Acid] | 91 | 406 | 126 |  |  |
| CSc1ccc(C2=C(COc3ccc(CCC(=O)O)c(C)c3C)CCCC2)cc1 [Compound 492, 3-[2,3-dimethyl-4-[[2-(4-methylsulfanylphenyl)cyclohexen-1-yl]methoxy]phenyl]Propanoic Acid] | 185 | 576 | 717 |  |  |
